Measurements taken from patent US20250115872A1, “GENERATION OF BROWN ADIPOCYTES FROM HUMAN PLURIPOTENT STEM CELLS” (The Brigham and Women's Hospital, Inc., priority 2022, published 2025).

System: iPSC-BAs
Experiment: Seahorse assay, oxygen consumption rate in iPSC-BAs
Type: cell-based, human
Description: FIGS. 8A-D: FIG. 8A—RT-qPCR analysis for UCP1 on 40 day old replated iPSC-derived adipogenic cultures treated with 10 μM forskolin or vehicle control DMSO treatment for 4 hours. Relative gene expression is shown as relative change to undifferentiated iPSC. Mean±SD, n=5, t-test, p<0.01. FIG. 8B—Measurement of glycerol released in culture medium 40 day old replated iPSC-derived adipogenic cultures treated with 10 μM forskolin or vehicle control DMSO treatment for 4 hours. Glycerol amount normalized using total protein amount. Mean±SD, n=4, t-test, p≤0.01. FIG. 8C—Measurement of fluorescent intensity of thermosensitive ERthermAC dye in iPSC derived precursors on day 20 of differentiation and brown adipocytes after 40 days of replating in response to 10 μM forskolin or vehicle control DMSO. Each data point represents Mean±SD, n=3, t-test, p=0.0009. FIG. 8D—Seahorse analysis to measure oxygen consumption rate in iPSC derived precursors on day 20 of differentiation and brown adipocytes after 40 days of replating in response to 1.5 μM oligomycin, 10 μM forskolin or vehicle control DMSO and 1 μM Rotenone and Antimycin (Rot/AA), respectively. Adipocytes or precursor cells were in XFe96 cell culture plates one week prior to the assay. […]
Agilent Seahorse XFe96 Analyzer was used to measure oxygen consumption in live iPSC-BAs and precursor cells following manufacturer's instructions. […] Basal respiration was measured 3 times in the assay medium. […] Cells were then treated with 10 μM Forskolin (Sigma-Aldrich, F6886) or DMSO (Sigma-Aldrich, D2650) and oxygen consumption rate (OCR) was measured for 70 minutes (12 measurements). […] Cells were automatically segmented using custom code in Fiji and number of DAPI and mCherry positive cells were quantified. […]
The process of thermogenesis is driven by the flow of protons through UCP1 in the mitochondrial inner membrane. To examine whether forskolin-induced thermogenesis in iPSC-BAs is coupled to proton leak in mitochondria, we measured oxygen consumption rate (OCR) with a Seahorse metabolic flux analyzer in 40 day-old replated cultures ([…]). […]

[1] = 1 μM Rotenone and Antimycin (Rot/AA), last step, electron transport chain block

| Compound | oxygen consumption rate (OCR) (1.5 μM Oligomycin alone, versus basal respiration) | oxygen consumption rate (OCR) [1] |
| --- | --- | --- |
| CC[C@H]1/C=C/C=C/C[C@@H](C)[C@H](O)[C@@](C)(O)C(=O)[C@@H](C)[C@H](O)[C@@H](C)C(=O)[C@@H](C)[C@H](O)[C@@H](C)/C=C/C(=O)O[C@@H]2[C@H](C)[C@H](CC1)O[C@]1(CC[C@H](C)[C@H](C[C@@H](C)O)O1)[C@H]2C [Oligomycin] | the OCR in cells decreased | – |
| C=C(C)[C@H]1Cc2c(ccc3c2O[C@@H]2COc4cc(OC)c(OC)cc4[C@@H]2C3=O)O1 [Rotenone] | – | drop of OCR |
| Antimycin | – | drop of OCR |
